{"source": "patent US4442087A", "about": "(priority 1979, dated 1984)", "type_in_all_cases": "cell-based", "key": {"[1]": {"system": "Rabbit spleen cells (RK-13 cells used for determination)", "assay": "IF induction in vitro, rabbit cells", "conditions": "1.0 μg/ml, 25 °C 24 h", "protocol": "(§1) (A) IF induction and determination of IF activity:\n(§2) A spleen cell suspension (10^7 cells/ml) was prepared by the method of hereinafter described Experiment 1 using an Eagle MEM medium (commercial product of Nissui Seiyaku K.K., Tokyo) containing a 10% calf serum (which was replaced by a 10% fetal cattle serum in the cases of human tests), each of which fraction (1 ml) was added with the sample of the active substance at a given concentration and incubated at a given temperature. The cultured liquor was centrifuged to separate a supernatant for use to determine the IF activity. Furthermore, in the cases of human tests, the fresh spleen was collected from a person (adult killed by external wounds) and used for the preparation of a leucocytes suspension on each occasion, and also blood was collected from the vein at the armpit of a person (adult, healthy) from which the serum was separated to use for the preparation of a serum suspension on each occasion. The IF activities were determined by using the cells shown in Table 5 by the method of hereinafterdescribed Experiment 1 and indicated in Table 6."}, "[2]": {"system": "Mouse spleen cells (L cells used for determination)", "assay": "IF induction in vitro, mouse cells", "conditions": "1.0 μg/ml, 37 °C 24 h", "protocol": "as §1, §2"}, "[3]": {"system": "Human spleen cells (FL cells used for determination)", "assay": "IF induction in vitro, human spleen cells", "conditions": "1.0 μg/ml, 25 °C 24 h", "protocol": "as §1, §2"}}, "data": [{"substance": "Poly: IC", "values": [{"measurement": "IF activity in vitro", "setting": "[1]", "result": 220}, {"measurement": "IF activity in vitro", "setting": "[2]", "result": 120}, {"measurement": "IF activity in vitro", "setting": "[3]", "result": "< 5"}]}]}
